The record followed here is PMC6125496 (Antimicrobial Agents and Chemotherapy, 2018).

The subject of experiment [1] is Klebsiella pneumoniae ATCC 43816. As to the kind of experiment: microbe, parasite or virus in culture. Conditions: Klebsiella pneumoniae, ATCC43816. The source says:
(§1) Reference strains are from the German Collection of Microorganisms and Cell Cultures (DSMZ), the American Type Culture Collection (ATCC), the National Collection of Type Cultures (NCTC), and the Medical and Molecular Microbiology, Faculty of Science and Medicine, University of Fribourg, Switzerland.

Experiment [2] concerns Stenotrophomonas maltophilia ATCC 13637. The experiment can be described thus: microbe, parasite or virus in culture. To be noted: Stenotrophomonas maltophilia, ATCC13637.
From the text: as §1

The subject of experiment [3] is Staphylococcus epidermidis ATCC 12228. The experiment can be described thus: microbe, parasite or virus in culture. To be noted: Staphylococcus epidermidis, ATCC12228.
From the text: as §1

Experiment [4] relates to Klebsiella pneumoniae ATCC BAA-1904. As to the kind of experiment: microbe, parasite or virus in culture. Conditions: Klebsiella pneumoniae, ATCCBAA1904.
From the text: as §1

The test system of experiment [5] is Klebsiella pneumoniae ATCC BAA-1905. The experiment can be described thus: microbe, parasite or virus in culture. Conditions: Klebsiella pneumoniae, ATCCBAA1905.
From the text: as §1

Experiment [6] relates to Klebsiella pneumoniae NCTC 13439. As to the kind of experiment: microbe, parasite or virus in culture. Conditions: Klebsiella pneumoniae, NCTC13439.
From the text: as §1

Experiment [7] deals with Klebsiella pneumoniae NCTC 13442. As to the kind of experiment: microbe, parasite or virus in culture. Conditions: Klebsiella pneumoniae, NCTC13442.
From the text: as §1

Experiment [8] deals with Pseudomonas aeruginosa DSM 1117. As to the kind of experiment: microbe, parasite or virus in culture. Conditions: Pseudomonas aeruginosa, DSM1117.
From the text: as §1

The test system of experiment [9] is Escherichia coli BAA-2471. The experiment can be described thus: microbe, parasite or virus in culture. Conditions: Escherichia coli, BAA2471.
From the text: as §1

In experiment [10] the test system is Enterobacter cloacae DSM 14563. As to the kind of experiment: microbe, parasite or virus in culture. Conditions: Enterobacter cloacae, DSM14563.
From the text: as §1

The test system of experiment [11] is Citrobacter kozeri DSM 4595. As to the kind of experiment: microbe, parasite or virus in culture. To be noted: Citrobacter, DSM4595.
From the text: as §1

The subject of experiment [12] is Escherichia coli ATCC 25922. As to the kind of experiment: microbe, parasite or virus in culture. To be noted: Escherichia coli, ATCC25922.
From the text: as §1

The subject of experiment [13] is Serratia marcescens DSM 17174. As to the kind of experiment: microbe, parasite or virus in culture. To be noted: Serratia marcescens, DSM17174.
From the text: as §1

For experiment [14], the system named is Enterobacter aerogenes DSM 30053. The experiment can be described thus: microbe, parasite or virus in culture. Conditions: Klebsiella aerogenes, DSM30053.
From the text: as §1

Experiment [15] relates to Staphylococcus aureus ATCC 29213. As to the kind of experiment: microbe, parasite or virus in culture. To be noted: Staphylococcus aureus, ATCC29213.
From the text: as §1

The subject of experiment [16] is Escherichia coli BAA-2469. As to the kind of experiment: microbe, parasite or virus in culture. To be noted: NDM-1.
From the text: as §1

In experiment [17] the test system is Klebsiella pneumoniae NCTC 13443. As to the kind of experiment: microbe, parasite or virus in culture. Conditions: Klebsiella pneumoniae, NCTC13443.
From the text: as §1

The test system of experiment [18] is Acinetobacter baumannii ATCC 19606. As to the kind of experiment: microbe, parasite or virus in culture. To be noted: Acinetobacter baumannii, ATCC19606.
From the text: as §1

The subject of experiment [19] is Enterococcus faecalis DSM 2570. As to the kind of experiment: microbe, parasite or virus in culture. To be noted: Enterococcus faecalis, DSM2570.
From the text: as §1

Experiment [20] relates to Enterococcus faecium DSM 20477. As to the kind of experiment: microbe, parasite or virus in culture. To be noted: Enterococcus faecium, DSM20477.
From the text: as §1

In experiment [21] the test system is Citrobacter freundii DSM 30039. The experiment can be described thus: microbe, parasite or virus in culture. To be noted: Citrobacter freundii, DSM30039.
From the text: as §1

The subject of experiment [22] is Streptococcus pneumoniae DSM 2134. The experiment can be described thus: microbe, parasite or virus in culture. To be noted: Streptococcus pneumoniae, DSM2134.
From the text: as §1

Experiment [23] deals with K. pneumoniae NCTC 13442 (OXA-48). The experiment can be described thus: Neutropenic mouse lung infection model. Format: in vivo, Klebsiella pneumoniae. Conditions: 160 mg/kg/day s.c. (40 mg/kg at 2, 8, 14, 20 h), 26 h postchallenge.
The test system of experiment [24] is Klebsiella pneumoniae, colistin resistant (46).
From the text: as §1

The subject of experiment [25] is Escherichia coli, colistin-resistant (25).
From the text: as §1

≈ marks a conversion by molar mass, not a printed value. Like-named read-outs stand apart in the source and are kept apart here.

For `CN(C)c1cc(NC(=O)CNC(C)(C)C)c(O)c2c1C[C@H]1C[C@H]3[C@H](N(C)C)C(O)=C(C(N)=O)C(=O)[C@@]3(O)C(O)=C1C2=O` [TGC, tigecycline], the MIC in experiment [1] came out at 2 µg/mL (≈ 3.41 µM); in experiment [2] it was 0.5 µg/mL (≈ 0.854 µM); in experiment [3] it was 0.5 µg/mL (≈ 0.854 µM); in [4], 2 µg/mL (≈ 3.41 µM); in experiment [5] it was 4 µg/mL (≈ 6.83 µM); in experiment [6] it was 2 µg/mL (≈ 3.41 µM). Also, the MIC in experiment [7] is 2 µg/mL (≈ 3.41 µM); in [8], over 8 µg/mL; in [9], 1 µg/mL (≈ 1.71 µM); in experiment [10], 4 µg/mL (≈ 6.83 µM); in [11], 1 µg/mL (≈ 1.71 µM); in experiment [12] it was 0.25 µg/mL (≈ 0.427 µM). Also, the MIC in experiment [13] was determined as 4 µg/mL (≈ 6.83 µM); in [14], 1 µg/mL (≈ 1.71 µM); in experiment [15], 0.5 µg/mL (≈ 0.854 µM); in [16] (Ambler class B carbapenemase), 1 µg/mL (≈ 1.71 µM); in experiment [16] (Escherichia coli, BAA2469, Ambler class B carbapenemase) it was 0.5 µg/mL (≈ 0.854 µM); in experiment [17] it was 4 µg/mL (≈ 6.83 µM). Besides, the MIC is 1 µg/mL (≈ 1.71 µM) in [18]; 0.25 µg/mL (≈ 0.427 µM) in [19]; 0.125 µg/mL (≈ 0.213 µM) in experiment [20]; 1 µg/mL (≈ 1.71 µM) in [21]; 0.125 µg/mL (≈ 0.213 µM) in [22]. In addition, in [23], the “reduction of lung burden relative to vehicle” value is listed as 3.14 log10 CFU/gram of lung tissue.
Consider colistin [CST], for which the MIC range is 32 µg/mL in [24] (Unknown mechanism (1)); over 128 µg/mL in [24] (crrB G183V substitution (1)); over 128 µg/mL in experiment [24] (crrB N141Y substitution (1)); over 128 µg/mL in experiment [24] (crrB P151L substitution (1)); 32 µg/mL in [24] (mcr-1 (1)); 128 µg/mL in experiment [24] (mgrB IS1R between +44 and +45 (2)). The MIC range in experiment [24] (mgrB IS1R into promoter between −45 and −46 (3)) was 32 to 128 µg/mL; in experiment [24] (mgrB IS5 between +74 and +75 (4)), 16 to 128 µg/mL; in [24] (mgrB IS903B between +69 and +70 (2)), 64 µg/mL; in experiment [24] (mgrB ISKpn14 into promoter between −28 and −29 (2)), 64 µg/mL; in experiment [24] (mgrB M27K substitution (1)), 32 µg/mL; in experiment [24] (mgrB N42Y and K43I substitutions (1)), 32 µg/mL. The MIC range in experiment [24] (mgrB W20R substitution (1)) is 32 µg/mL; in [24] (mgrB W47R substitution (1)), 8 µg/mL; in experiment [24] (mgrB premature termination (6)), 32 to 128 µg/mL; in [24] (phoQ R16C substitution (1)) it was over 128 µg/mL; in experiment [24] (pmrB L17Q substitution (1)) it was 32 µg/mL; in [24] (pmrB T157P substitution (6)) it was 8 to 32 µg/mL. Besides, the MIC range is 16 µg/mL in experiment [25] (Unknown mechanism (2 isolates)), 4 to 16 µg/mL in experiment [25] (mcr-1 (21 isolates)), 8 µg/mL in experiment [25] (mcr-2 (1 isolate)) and 16 µg/mL in experiment [25] (mcr-3 (1 isolate)).
